In US20250011288A1 (BRISTOL-MYERS SQUIBB COMPANY, priority 2021, published 2025):

Target: T1, human RXFP1 (Homo sapiens, UniProt Q9HBX9)
T1 construct: expressed in transfected cells
T1 sequence (Q9HBX9 1-757): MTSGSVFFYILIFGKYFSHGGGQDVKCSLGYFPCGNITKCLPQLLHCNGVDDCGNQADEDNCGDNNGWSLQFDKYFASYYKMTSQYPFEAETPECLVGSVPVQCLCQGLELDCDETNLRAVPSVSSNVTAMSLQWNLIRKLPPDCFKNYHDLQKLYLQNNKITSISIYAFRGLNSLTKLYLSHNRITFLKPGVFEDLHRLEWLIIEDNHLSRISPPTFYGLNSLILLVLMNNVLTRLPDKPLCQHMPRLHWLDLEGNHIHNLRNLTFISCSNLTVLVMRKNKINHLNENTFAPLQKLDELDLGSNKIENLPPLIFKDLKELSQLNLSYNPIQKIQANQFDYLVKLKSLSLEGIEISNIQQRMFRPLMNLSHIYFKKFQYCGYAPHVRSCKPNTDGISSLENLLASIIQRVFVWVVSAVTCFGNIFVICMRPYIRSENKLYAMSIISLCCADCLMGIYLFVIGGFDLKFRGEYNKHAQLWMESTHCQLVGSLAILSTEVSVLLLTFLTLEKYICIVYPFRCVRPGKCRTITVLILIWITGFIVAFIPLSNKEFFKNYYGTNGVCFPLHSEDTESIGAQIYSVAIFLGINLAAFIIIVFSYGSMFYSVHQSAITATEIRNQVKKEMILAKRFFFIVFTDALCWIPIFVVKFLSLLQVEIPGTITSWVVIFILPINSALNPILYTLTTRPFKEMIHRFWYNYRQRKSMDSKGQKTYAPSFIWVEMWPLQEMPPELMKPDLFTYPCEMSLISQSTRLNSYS
Test: human RXFP1 (hRXFP1) HEK293 cAMP assay (HTRF)
Format: cell-based
Details: HEK293 cells stably expressing human RXFP1, 30 min at room temperature
Method in brief: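 Intracellular cAMP was quantified by HTRF after a 30 min room-temperature exposure of hRXFP1-HEK293 cells (1500/well) to compound at 0.010 nM–50 µM final, 2% DMSO. Buffer was HBSS with 20 mM HEPES, 0.05% BSA and 0.5 mM IBMX; values came from a 4-parameter logistic fit.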

SMILES | EC50
O=C(N[C@@H]1C2CCC(/C2=C/C(F)(F)F)[C@@H]1C(=O)Nc1ccc(F)c(C(F)(F)F)c1)c1cc(Br)cc2c1OCC2 (stereo partly drawn) [Example 58, 5-bromo-N-[(2R,3S,7Z)-3-{[4-fluoro-3-(trifluoromethyl)phenyl]carbamoyl}-7-(2,2,2-trifluoro-ethylidene)bicyclo[2. 2.1]heptan-2-yl]-2,3-dihydro-1-benzofuran-7-carboxamide] | 3000 nM
COc1ncc(C2=NOC3CC(C(N)=O)CC23)cc1C(=O)N[C@H]1[C@@H](C(=O)Nc2ccc(F)c(C(F)(F)F)c2)[C@H]2CC[C@@H]1/C2=C\C1CC1 (stereo partly drawn) [Example 66, 5-{5-carbamoyl-3aH,4H,5H,6H, 6aH-cyclopenta[d][1, 2]oxazol-3-yl}-N-[(1R,2R,3S, 4R,7Z)-7-(cyclopropylmethylidene)-3-{[4-fluoro-3-(trifluoromethyl)phenyl]carbamoyl}bicyclo[2.2.1]heptan-2-yl]-2-methoxypyridine-3-carboxamide] | 1.3 nM
COc1ncc(COC2(CO)CC2)cc1C(=O)N[C@H]1[C@@H](C(=O)Nc2ccc(F)c(C(F)(F)F)c2)[C@H]2CC[C@@H]1/C2=C\C1CC1 [Example 73, N-[(1R,2R,3S, 4R,7Z)-7-(cyclopropyl-methylidene)-3-{[4-fluoro-3-(trifluoromethyl)phenyl]carbamoyl}bicyclo[2.2.1]heptan-2-yl]-5-{[1-(hydroxymethyl)cyclopropoxy]methyl}-2-methoxypyridine-3-carboxamide] | 24 nM
COc1ncc(C(=O)N2CC(O)C2)cc1C(=O)N[C@H]1[C@@H](C(=O)Nc2ccc(F)c(C(F)(F)F)c2)[C@H]2CC[C@@H]1/C2=C\C1CC1 [Example 75, N-[(1R,2R,3S, 4R,7Z)-7-(cyclopropyl-methylidene)-3-{[4-fluoro-3-(trifluoromethyl)phenyl]carbamoyl}bicyclo[2.2.1]heptan-2-yl]-5-(3-hydroxyazetidine-1-carbonyl)-2-methoxypyridine-3-carboxamide] | 8.1 nM
COc1ncc(C(=O)N2CC3(COC3)C2)cc1C(=O)N[C@H]1[C@@H](C(=O)Nc2ccc(F)c(C(F)(F)F)c2)[C@H]2CC[C@@H]1/C2=C\C1CC1 [Example 76, N-[(1R,2R, 3S,4R,7Z)-7-(cyclopropyl-methylidene)-3-{[4-fluoro-3-(trifluoromethyl)phenyl]carbamoyl}bicyclo[2.2.1]heptan-2-yl]-2-methoxy-5-{2-oxa-6-azaspiro[3.3]heptane-6-carbonyl}pyridine-3-carboxamide] | 65 nM
COc1cn(CCS(C)(=O)=O)nc1C(=O)N[C@H]1[C@@H](C(=O)Nc2ccc(F)c(C(F)(F)F)c2)[C@H]2CC[C@@H]1/C2=C\C1CC1 [Example 77, N-[(1R,2R,3S,4R,7Z)-7-(cyclopropylmethylidene)-3-{[4-fluoro-3-(trifluoromethyl)phenyl]carbamoyl}bicyclo[2.2.1]heptan-2-yl]-1-(2-methanesulfonylethyl)-4-methoxy-1H-pyrazole-3-carboxamide] | 71 nM
COc1ncc(C(=O)OC(C)(C)C)cc1C(=O)N[C@H]1[C@@H](C(=O)Nc2ccc(F)c(C(F)(F)F)c2)[C@H]2CC[C@@H]1/C2=C\C1CC1 [Example 78, tert-butyl 5-(((1R,2R,3S,4R,Z)-7-(cyclopropylmethylene)-3-((4-fluoro-3-(trifluoromethyl)phenyl)carbamoyl)bicyclo[2.2.1]heptan-2-yl)carbamoyl)-6-methoxynicotinate] | 140 nM

Results, then the compound that gave them:

EC50 | SMILES
230 nM | COCCn1cc(OC)c(C(=O)N[C@@H]2C3CCC(/C3=C/C3CC3)[C@@H]2C(=O)Nc2ccc(F)c(C(F)(F)F)c2)n1 (stereo partly shown) [Example 79]
260 nM | COc1cn(CCCO)nc1C(=O)N[C@H]1[C@@H](C(=O)Nc2ccc(F)c(C(F)(F)F)c2)[C@H]2CC[C@@H]1/C2=C\C1CC1 [Example 80, N-[(1R,2R,3S, 4R,7Z)-7-(cyclopropyl-methylidene)-3-{[4-fluoro-3-(trifluoromethyl)phenyl]carbamoyl}bicyclo[2.2.1]heptan-2-yl]-1-(3-hydroxypropyl)-4-methoxy-1H-pyrazole-3-carboxamide]
2300 nM | O=C(O)c1ccc(F)c(C23COC(C(=O)N[C@H]4[C@@H](C(=O)Nc5ccc(F)c(C(F)(F)F)c5)[C@H]5CC[C@@H]4/C5=C\C(F)(F)F)(C2)C3)c1 [Example 81, 4-fluoro-3-(1-(((1R,2R,3S,4R,Z)-3-((4-fluoro-3-(trifluoromethyl)phenyl)carbamoyl)-7-(2,2,2-trifluoroethylidene)bicyclo[2.2.1]heptan-2-yl)carbamoyl)-2-oxabicyclo[2.1.1]hexan-4-yl)benzoic acid]
660 nM | COc1cc2c(cc1C(=O)N[C@H]1[C@@H](C(=O)Nc3ccc(F)c(C(F)(F)F)c3)[C@H]3CC[C@@H]1/C3=C\C1CC1)CN(C(=O)OC(C)(C)C)CC2 [Example 82, tert-butyl 7-(((1R,2R,3S,4R,Z)-7-(cyclopropylmethylene)-3-((4-fluoro-3-(trifluoromethyl)phenyl)carbamoyl)bicyclo[2.2.1]heptan-2-yl)carbamoyl)-6-methoxy-3,4-dihydroisoquinoline-2(1H)-carboxylate]
2400 nM | COc1cc2c(cc1C(=O)N[C@H]1[C@@H](C(=O)Nc3ccc(F)c(C(F)(F)F)c3)[C@H]3CC[C@@H]1/C3=C\C1CC1)CNCC2 [Example 83, N-((1R,2R,3S,4R,Z)-7-(cyclopropylmethylene)-3-((4-fluoro-3-(trifluoromethyl)phenyl)carbamoyl)bicyclo[2.2.1]heptan-2-yl)-6-methoxy-1,2,3,4-tetrahydroisoquinoline-7-carboxamide]
330 nM | COc1cc2c(cc1C(=O)N[C@H]1[C@@H](C(=O)Nc3ccc(F)c(C(F)(F)F)c3)[C@H]3CC[C@@H]1/C3=C\C1CC1)CN(CCS(C)(=O)=O)CC2 [Example 84, N-((1R,2R,3S,4R,Z)-7-(cyclopropylmethylene)-3-((4-fluoro-3-(trifluoromethyl)phenyl)carbamoyl)bicyclo[2.2.1]heptan-2-yl)-6-methoxy-2-(2-(methylsulfonyl)ethyl)-1,2,3,4-tetrahydroisoquinoline-7-carboxamide]
200 nM | COc1cc2c(cc1C(=O)N[C@H]1[C@@H](C(=O)Nc3ccc(F)c(C(F)(F)F)c3)[C@H]3CC[C@@H]1/C3=C\C1CC1)CN(CC(C)(C)O)CC2 [Example 85, N-((1R,2R,3S,4R,Z)-7-(cyclopropylmethylene)-3-((4-fluoro-3-(trifluoromethyl)phenyl)carbamoyl)bicyclo[2.2.1]heptan-2-yl)-2-(2-hydroxy-2-methylpropyl)-6-methoxy-1,2,3,4-tetrahydroisoquinoline-7-carboxamide]
240 nM | COc1cc2c(cc1C(=O)N[C@@H]1C3CCC(/C3=C/C3CC3)[C@@H]1C(=O)Nc1ccc(F)c(C(F)(F)F)c1)CN(CCCO)CC2 (stereo partly drawn) [Example 86, N-[(1R,2R,3S,4R)-7-(cyclopropyl-methylidene)-3-{[4-fluoro-3-(trifluoromethyl)phenyl]carbamoyl}bicyclo[2.2.1]heptan-2-yl]-2-(3-hydroxypropyl)-6-methoxy-1,2,3,4-tetrahydroiso-quinoline-7-carboxamide]
630 nM | COCCN1CCc2cc(OC)c(C(=O)N[C@H]3[C@@H](C(=O)Nc4ccc(F)c(C(F)(F)F)c4)[C@H]4CC[C@@H]3/C4=C\C3CC3)cc2C1 [Example 87, N-[(1R,2R,3S,4R)-7-(cyclopropyl-methylidene)-3-{[4-fluoro-3-(trifluoromethyl)phenyl]carbamoyl}bicyclo[2.2.1]heptan-2-yl]-6-methoxy-2-(2-methoxyethyl)-1,2,3,4-tetrahydro-isoquinoline-7-carboxamide]
